Reference: ChEMBL document CHEMBL1133320, “Inhibition of the ras-dependent mitogenic pathway by phosphopeptide prodrugs with antiproliferative properties” (Bioorg Med Chem Lett, 2000)
Numbered stars: 1 amine (or outer) side, 2 acyl side, 3 side chain; on linkers, the order of the positions; unused ones are H or OH. Square brackets hold non-standard residues; d marks the D form. Peptide text beside a SMILES is read from it. ξ: configuration not given here. X2 = CC(C)(C)C(=O)SCCOP(=O)(OCCSC(=O)C(C)(C)C)Oc1ccc(C[C@H](N[*:1])C(=O)[*:2])cc1; X1 = CC(=O)SCCOP(=O)(OCCSC(C)=O)Oc1ccc(C[C@H](N[*:1])C(=O)[*:2])cc1; F2Pmp = N[C@@H](Cc1ccc(C(F)(F)P(=O)(O)O)cc1)C(=O)O; Pmp = N[C@@H](Cc1ccc(CP(=O)(O)O)cc1)C(=O)O; pY = N[C@@H](Cc1ccc(OP(=O)(O)O)cc1)C(=O)O; ξP = O=C(O)C1CCCN1

The molecules below were run against T1, Growth factor receptor-bound protein 2 (Homo sapiens, UniProt P62993) (assay: Dissociation constant of compound was determined from affinity of compound towards Growth factor receptor bound protein 2 measured by fluorescence).
T1 sequence (P62993 whole entry): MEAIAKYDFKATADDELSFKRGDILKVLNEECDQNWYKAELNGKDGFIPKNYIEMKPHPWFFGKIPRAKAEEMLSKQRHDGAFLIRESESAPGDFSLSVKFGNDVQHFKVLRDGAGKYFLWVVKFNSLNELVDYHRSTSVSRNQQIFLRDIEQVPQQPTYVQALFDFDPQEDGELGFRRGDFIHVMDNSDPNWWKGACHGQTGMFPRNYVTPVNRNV

Compound	Kd [nM]
CC(C)[C@H](NC(=O)[C@H](CC(N)=O)NC(=O)[C@@H](NC(=O)[C@H](Cc1ccc(C(F)(F)P(=O)(O)O)cc1)NC(=O)[C@H](CO)NC(=O)[C@@H]1CCCN1)C(C)C)C(=O)N[C@@H](CCC(N)=O)C(=O)N[C@@H](CC(N)=O)C(=O)O (H-PS[F2Pmp]VNVQN-OH)	200
CC(=O)N1CCC[C@H]1C(=O)N[C@@H](Cc1ccccc1)C(=O)N[C@@H](Cc1ccc(OP(=O)(O)O)cc1)C(=O)N[C@H](C(=O)N[C@@H](CC(N)=O)C(=O)N[C@H](C(=O)N1CCC[C@H]1C(N)=O)C(C)C)C(C)C (Ac-PF[pY]VNVP-NH2)	30
CC(C)[C@H](NC(=O)[C@H](CC(N)=O)NC(=O)[C@@H](NC(=O)[C@H](Cc1ccc(CP(=O)(O)O)cc1)NC(=O)[C@H](CO)NC(=O)[C@@H]1CCCN1)C(C)C)C(=O)N[C@@H](CCC(N)=O)C(=O)N[C@@H](CC(N)=O)C(=O)O (H-PS[Pmp]VNVQN-OH)	260
CC(C)[C@H](NC(=O)[C@H](CC(N)=O)NC(=O)[C@@H](NC(=O)[C@H](Cc1ccc(OP(=O)(O)O)cc1)NC(=O)[C@H](CO)NC(=O)[C@@H]1CCCN1)C(C)C)C(=O)N[C@@H](CCC(N)=O)C(=O)N[C@@H](CC(N)=O)C(=O)O (H-PS[pY]VNVQN-OH)	18

Each molecule was assayed against T1, Growth factor receptor-bound protein 2 (assay: Dissociation constant of compound was determined from affinity of compound towards Growth factor receptor bound protein 2 measured by fluorescence; Non-detectable).

Compound	Kd
CC(=O)SCCOP(=O)(OCCSC(C)=O)Oc1ccc(C[C@H](NC(=O)[C@H](Cc2ccccc2)NC(=O)[C@@H]2CCCN2C(C)=O)C(=O)N[C@H](C(=O)N[C@@H](CC(N)=O)C(=O)N[C@H](C(=O)N2CCC[C@H]2C(N)=O)C(C)C)C(C)C)cc1 (Ac-PF[X1]VNVP-NH2)	Not Active
CC(=O)N1CCC[C@H]1C(=O)N[C@@H](Cc1ccccc1)C(=O)N[C@@H](Cc1ccc(OP(=O)(OCCSC(=O)C(C)(C)C)OCCSC(=O)C(C)(C)C)cc1)C(=O)N[C@H](C(=O)N[C@@H](CC(N)=O)C(=O)N[C@H](C(=O)N1CCCC1C(N)=O)C(C)C)C(C)C (stereo partly specified) (Ac-PF[X2]VNV[ξP]-NH2)	Not Active
